Data reported in PubChem BioAssay (NCI).
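Tested at 5 concentrations; 48 h exposure; 96-well plates; endpoints linearly interpolated, else capped at highest concentration. TGI: total growth inhibition.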

Tests used:
Test in all cases: inhibition of tumour cell growth, NCI panel, 48 h
[1] = system: 786-0 renal
[2] = system: A549 NSCLC
[3] = system: ACHN renal
[4] = system: BT-549 breast
[5] = system: CAKI-1 renal
[6] = system: COLO 205 colon
[7] = system: DU-145 prostate
[8] = system: EKVX NSCLC
[9] = system: HCC-2998 colon
[10] = system: HCT-116 colon
[11] = system: HCT-15 colon
[12] = system: HL-60(TB) leukemia
[13] = system: HOP-62 NSCLC
[14] = system: HOP-92 NSCLC
[15] = system: HS 578T breast
[16] = system: HT29 colon
[17] = system: IGROV1 ovarian
[18] = system: K-562 leukemia
[19] = system: KM12 colon
[20] = system: LOX IMVI melanoma
[21] = system: M14 melanoma
[22] = system: MALME-3M melanoma
[23] = system: MCF7 breast
[24] = system: MDA-MB-231 breast
[25] = system: MDA-MB-435
[26] = system: MDA-N
[27] = system: MOLT-4 leukemia
[28] = system: NCI-H226 lung
[29] = system: NCI-H23 lung
[30] = system: NCI-H460 lung
[31] = system: NCI-H522 lung
[32] = system: NCI/ADR-RES ovarian
[33] = system: OVCAR-3 ovarian
[34] = system: OVCAR-4 ovarian
[35] = system: OVCAR-5 ovarian
[36] = system: OVCAR-8 ovarian
[37] = system: PC-3 prostate
[38] = system: RPMI-8226 leukemia
[39] = system: RXF 393 renal
[40] = system: SF-268 CNS
[41] = system: SF-295 CNS
[42] = system: SF-539 CNS
[43] = system: SK-MEL-2 melanoma
[44] = system: SK-MEL-28 melanoma
[45] = system: SK-MEL-5 melanoma
[46] = system: SK-OV-3 ovarian
[47] = system: SN12C renal
[48] = system: SNB-19 CNS
[49] = system: SNB-75 CNS
[50] = system: SR leukemia
[51] = system: SW-620 colon
[52] = system: T-47D breast
[53] = system: TK-10 renal
[54] = system: U251 CNS
[55] = system: UACC-257 melanoma
[56] = system: UACC-62 melanoma
[57] = system: UO-31 renal
[58] = system: A498 renal
[59] = system: CCRF-CEM leukemia

## CC(C)(C)OC(=O)N1C(OP(=O)(Oc2ccccc2)Oc2ccccc2)=COc2cccnc21
[1]
  TGI: > 100 µM
[2]
  TGI: > 100 µM
[3]
  TGI: > 100 µM
[4]
  TGI: > 100 µM
[5]
  TGI: > 100 µM
[6]
  TGI: > 100 µM
[7]
  TGI: > 100 µM
[8]
  TGI: > 100 µM
[9]
  TGI: > 100 µM
[10]
  TGI: > 100 µM
[11]
  TGI: > 100 µM
[12]
  TGI: 36.6 µM
[13]
  TGI: > 100 µM
[14]
  TGI: 92.5 µM
[15]
  TGI: > 100 µM
[16]
  TGI: > 100 µM
[17]
  TGI: > 100 µM
[18]
  TGI: > 100 µM
[19]
  TGI: > 100 µM
[20]
  TGI: 85.3 µM
[21]
  TGI: > 100 µM
[22]
  TGI: 98.2 µM
[23]
  TGI: > 100 µM
[24]
  TGI: > 100 µM
[25]
  TGI: > 100 µM
[26]
  TGI: > 100 µM
[27]
  TGI: 43.3 µM
[28]
  TGI: > 100 µM
[29]
  TGI: > 100 µM
[30]
  TGI: 94 µM
[31]
  TGI: > 100 µM
[32]
  TGI: > 100 µM
[33]
  TGI: > 100 µM
[34]
  TGI: > 100 µM
[35]
  TGI: > 100 µM
[36]
  TGI: > 100 µM
[37]
  TGI: > 100 µM
[38]
  TGI: 53.2 µM
[39]
  TGI: > 100 µM
[40]
  TGI: > 100 µM
[41]
  TGI: > 100 µM
[42]
  TGI: > 100 µM
[43]
  TGI: 55.7 µM
[44]
  TGI: > 100 µM
[45]
  TGI: 35.5 µM
[46]
  TGI: > 100 µM
[47]
  TGI: > 100 µM
[48]
  TGI: > 100 µM
[49]
  TGI: > 100 µM
[50]
  TGI: 82.9 µM
[51]
  TGI: > 100 µM
[52]
  TGI: 94.2 µM
[53]
  TGI: > 100 µM
[54]
  TGI: > 100 µM
[55]
  TGI: > 100 µM
[56]
  TGI: > 100 µM
[57]
  TGI: > 100 µM

## CCCCCCCCCCCCCCCCNc1nc(=O)n(C2CC(O)C(CO)O2)cc1F (stereo unspecified)
[1]
  TGI: 21.7 µM
[2]
  TGI: 18.7 µM
[3]
  TGI: 11.9 µM
[4]
  TGI: 32.4 µM
[5]
  TGI: 23.3 µM
[6]
  TGI: 48.6 µM
[7]
  TGI: 21.6 µM
[8]
  TGI: 30.9 µM
[9]
  TGI: 14.2 µM
[10]
  TGI: 23.5 µM
[11]
  TGI: 26.1 µM
[12]
  TGI: 27.7 µM
[13]
  TGI: 20 µM
[14]
  TGI: 25.1 µM
[15]
  TGI: 38.7 µM
[16]
  TGI: 21.5 µM
[17]
  TGI: 27.6 µM
[19]
  TGI: 34 µM
[20]
  TGI: 24.1 µM
[21]
  TGI: 27.2 µM
[22]
  TGI: 22.8 µM
[23]
  TGI: 19.9 µM
[24]
  TGI: 43.3 µM
[25]
  TGI: 24.6 µM
[26]
  TGI: 72.1 µM
[27]
  TGI: 37.7 µM
[28]
  TGI: 10.8 µM
[29]
  TGI: 18 µM
[30]
  TGI: 27.3 µM
[31]
  TGI: 20.7 µM
[32]
  TGI: 27.1 µM
[33]
  TGI: 39.3 µM
[34]
  TGI: 40.4 µM
[35]
  TGI: 47.6 µM
[36]
  TGI: 23.9 µM
[37]
  TGI: 21.2 µM
[38]
  TGI: 37.6 µM
[39]
  TGI: 28.4 µM
[40]
  TGI: 22.3 µM
[41]
  TGI: 30.1 µM
[42]
  TGI: 11.4 µM
[43]
  TGI: 40.3 µM
[44]
  TGI: 28.4 µM
[45]
  TGI: 48.1 µM
[46]
  TGI: 28.3 µM
[47]
  TGI: 26.9 µM
[48]
  TGI: 34.6 µM
[50]
  TGI: 26.3 µM
[51]
  TGI: 32.1 µM
[52]
  TGI: 25.3 µM
[53]
  TGI: 27.5 µM
[54]
  TGI: 33.1 µM
[55]
  TGI: 33.9 µM
[56]
  TGI: 22.8 µM
[57]
  TGI: 18.8 µM

## COC(=O)C(C)Sc1nc2cc(Cl)ccc2s1 (stereo unspecified)
[1]
  TGI: > 100 µM
[58]
  TGI: > 100 µM
[2]
  TGI: > 100 µM
[3]
  TGI: > 100 µM
[4]
  TGI: > 100 µM
[5]
  TGI: > 100 µM
[59]
  TGI: > 100 µM
[6]
  TGI: > 100 µM
[7]
  TGI: > 100 µM
[8]
  TGI: > 100 µM
[9]
  TGI: > 100 µM
[10]
  TGI: > 100 µM
[11]
  TGI: > 100 µM
[13]
  TGI: > 100 µM
[14]
  TGI: > 100 µM
[15]
  TGI: > 100 µM
[16]
  TGI: > 100 µM
[17]
  TGI: > 100 µM
[18]
  TGI: > 100 µM
[19]
  TGI: > 100 µM
[21]
  TGI: > 100 µM
[22]
  TGI: > 100 µM
[23]
  TGI: > 100 µM
[24]
  TGI: > 100 µM
[25]
  TGI: > 100 µM
[26]
  TGI: > 100 µM
[27]
  TGI: > 100 µM
[28]
  TGI: > 100 µM
[29]
  TGI: > 100 µM
[30]
  TGI: > 100 µM
[31]
  TGI: > 100 µM
[32]
  TGI: > 100 µM
[33]
  TGI: > 100 µM
[34]
  TGI: > 100 µM
[35]
  TGI: > 100 µM
[36]
  TGI: > 100 µM
[37]
  TGI: > 100 µM
[38]
  TGI: > 100 µM
[39]
  TGI: > 100 µM
[40]
  TGI: > 100 µM
[41]
  TGI: > 100 µM
[42]
  TGI: > 100 µM
[44]
  TGI: > 100 µM
[45]
  TGI: > 100 µM
[46]
  TGI: > 100 µM
[47]
  TGI: > 100 µM
[48]
  TGI: > 100 µM
[49]
  TGI: > 100 µM
[51]
  TGI: > 100 µM
[52]
  TGI: > 100 µM
[54]
  TGI: > 100 µM
[55]
  TGI: > 100 µM
[56]
  TGI: > 100 µM
[57]
  TGI: > 100 µM
